{"source": "PubChem BioAssay (NCI)", "test_in_all_cases": "NCI anticancer screen, dose series, 48 h", "key": {"786-0 renal": {"tested_on": "786-0 renal"}, "A498 renal": {"tested_on": "A498 renal"}, "A549 NSCLC": {"tested_on": "A549 NSCLC"}, "ACHN renal": {"tested_on": "ACHN renal"}, "BT-549 breast": {"tested_on": "BT-549 breast"}, "CAKI-1 renal": {"tested_on": "CAKI-1 renal"}, "CCRF-CEM leukemia": {"tested_on": "CCRF-CEM leukemia"}, "COLO 205 colon": {"tested_on": "COLO 205 colon"}, "DU-145 prostate": {"tested_on": "DU-145 prostate"}, "EKVX NSCLC": {"tested_on": "EKVX NSCLC"}, "HCC-2998 colon": {"tested_on": "HCC-2998 colon"}, "HCT-116 colon": {"tested_on": "HCT-116 colon"}, "HCT-15 colon": {"tested_on": "HCT-15 colon"}, "HL-60(TB) leukemia": {"tested_on": "HL-60(TB) leukemia"}, "HOP-62 NSCLC": {"tested_on": "HOP-62 NSCLC"}, "HOP-92 NSCLC": {"tested_on": "HOP-92 NSCLC"}, "HS 578T breast": {"tested_on": "HS 578T breast"}, "HT29 colon": {"tested_on": "HT29 colon"}, "IGROV1 ovarian": {"tested_on": "IGROV1 ovarian"}, "K-562 leukemia": {"tested_on": "K-562 leukemia"}, "KM12 colon": {"tested_on": "KM12 colon"}, "LOX IMVI melanoma": {"tested_on": "LOX IMVI melanoma"}, "M14 melanoma": {"tested_on": "M14 melanoma"}, "MALME-3M melanoma": {"tested_on": "MALME-3M melanoma"}, "MCF7 breast": {"tested_on": "MCF7 breast"}, "MDA-MB-231 breast": {"tested_on": "MDA-MB-231 breast"}, "MDA-MB-435": {"tested_on": "MDA-MB-435"}, "MDA-N": {"tested_on": "MDA-N"}, "MOLT-4 leukemia": {"tested_on": "MOLT-4 leukemia"}, "NCI-H226 lung": {"tested_on": "NCI-H226 lung"}, "NCI-H23 lung": {"tested_on": "NCI-H23 lung"}, "NCI-H460 lung": {"tested_on": "NCI-H460 lung"}, "NCI-H522 lung": {"tested_on": "NCI-H522 lung"}, "NCI/ADR-RES ovarian": {"tested_on": "NCI/ADR-RES ovarian"}, "OVCAR-3 ovarian": {"tested_on": "OVCAR-3 ovarian"}, "OVCAR-4 ovarian": {"tested_on": "OVCAR-4 ovarian"}, "OVCAR-5 ovarian": {"tested_on": "OVCAR-5 ovarian"}, "OVCAR-8 ovarian": {"tested_on": "OVCAR-8 ovarian"}, "PC-3 prostate": {"tested_on": "PC-3 prostate"}, "RPMI-8226 leukemia": {"tested_on": "RPMI-8226 leukemia"}, "RXF 393 renal": {"tested_on": "RXF 393 renal"}, "SF-268 CNS": {"tested_on": "SF-268 CNS"}, "SF-295 CNS": {"tested_on": "SF-295 CNS"}, "SF-539 CNS": {"tested_on": "SF-539 CNS"}, "SK-MEL-2 melanoma": {"tested_on": "SK-MEL-2 melanoma"}, "SK-MEL-28 melanoma": {"tested_on": "SK-MEL-28 melanoma"}, "SK-MEL-5 melanoma": {"tested_on": "SK-MEL-5 melanoma"}, "SK-OV-3 ovarian": {"tested_on": "SK-OV-3 ovarian"}, "SN12C renal": {"tested_on": "SN12C renal"}, "SNB-19 CNS": {"tested_on": "SNB-19 CNS"}, "SNB-75 CNS": {"tested_on": "SNB-75 CNS"}, "SR leukemia": {"tested_on": "SR leukemia"}, "SW-620 colon": {"tested_on": "SW-620 colon"}, "T-47D breast": {"tested_on": "T-47D breast"}, "TK-10 renal": {"tested_on": "TK-10 renal"}, "U251 CNS": {"tested_on": "U251 CNS"}, "UACC-257 melanoma": {"tested_on": "UACC-257 melanoma"}, "UACC-62 melanoma": {"tested_on": "UACC-62 melanoma"}, "UO-31 renal": {"tested_on": "UO-31 renal"}}, "note": "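In this assay, cells in 96-well plates receive the compound at five concentrations for 48 hours. Endpoints are linearly interpolated between the surrounding concentrations. TGI denotes the concentration required for complete inhibition of growth.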"}
{"smiles": "C=CCN1C(=O)/C(=C/c2ccc(OC)cc2)N=C1SC/C=C/C", "values": [{"measurement": "TGI", "setting": "786-0 renal", "value": "> 100", "unit": "µM"}, {"measurement": "TGI", "setting": "A498 renal", "value": "> 100", "unit": "µM"}, {"measurement": "TGI", "setting": "A549 NSCLC", "value": "> 100", "unit": "µM"}, {"measurement": "TGI", "setting": "ACHN renal", "value": "> 100", "unit": "µM"}, {"measurement": "TGI", "setting": "BT-549 breast", "value": "> 100", "unit": "µM"}, {"measurement": "TGI", "setting": "CAKI-1 renal", "value": "> 100", "unit": "µM"}, {"measurement": "TGI", "setting": "CCRF-CEM leukemia", "value": "> 100", "unit": "µM"}, {"measurement": "TGI", "setting": "COLO 205 colon", "value": "> 100", "unit": "µM"}, {"measurement": "TGI", "setting": "DU-145 prostate", "value": "> 100", "unit": "µM"}, {"measurement": "TGI", "setting": "EKVX NSCLC", "value": "> 100", "unit": "µM"}, {"measurement": "TGI", "setting": "HCC-2998 colon", "value": "> 100", "unit": "µM"}, {"measurement": "TGI", "setting": "HCT-116 colon", "value": "> 100", "unit": "µM"}, {"measurement": "TGI", "setting": "HCT-15 colon", "value": "> 100", "unit": "µM"}, {"measurement": "TGI", "setting": "HL-60(TB) leukemia", "value": 54.4, "unit": "µM"}, {"measurement": "TGI", "setting": "HOP-62 NSCLC", "value": "> 100", "unit": "µM"}, {"measurement": "TGI", "setting": "HOP-92 NSCLC", "value": 93.8, "unit": "µM"}, {"measurement": "TGI", "setting": "HS 578T breast", "value": "> 100", "unit": "µM"}, {"measurement": "TGI", "setting": "HT29 colon", "value": "> 100", "unit": "µM"}, {"measurement": "TGI", "setting": "IGROV1 ovarian", "value": "> 100", "unit": "µM"}, {"measurement": "TGI", "setting": "K-562 leukemia", "value": "> 100", "unit": "µM"}, {"measurement": "TGI", "setting": "KM12 colon", "value": "> 100", "unit": "µM"}, {"measurement": "TGI", "setting": "LOX IMVI melanoma", "value": "> 100", "unit": "µM"}, {"measurement": "TGI", "setting": "M14 melanoma", "value": "> 100", "unit": "µM"}, {"measurement": "TGI", "setting": "MALME-3M melanoma", "value": "> 100", "unit": "µM"}, {"measurement": "TGI", "setting": "MCF7 breast", "value": "> 100", "unit": "µM"}, {"measurement": "TGI", "setting": "MDA-MB-231 breast", "value": "> 100", "unit": "µM"}, {"measurement": "TGI", "setting": "MDA-MB-435", "value": "> 100", "unit": "µM"}, {"measurement": "TGI", "setting": "MDA-N", "value": "> 100", "unit": "µM"}, {"measurement": "TGI", "setting": "MOLT-4 leukemia", "value": 66.7, "unit": "µM"}, {"measurement": "TGI", "setting": "NCI-H226 lung", "value": "> 100", "unit": "µM"}, {"measurement": "TGI", "setting": "NCI-H23 lung", "value": "> 100", "unit": "µM"}, {"measurement": "TGI", "setting": "NCI-H460 lung", "value": "> 100", "unit": "µM"}, {"measurement": "TGI", "setting": "NCI-H522 lung", "value": "> 100", "unit": "µM"}, {"measurement": "TGI", "setting": "NCI/ADR-RES ovarian", "value": "> 100", "unit": "µM"}, {"measurement": "TGI", "setting": "OVCAR-3 ovarian", "value": "> 100", "unit": "µM"}, {"measurement": "TGI", "setting": "OVCAR-4 ovarian", "value": "> 100", "unit": "µM"}, {"measurement": "TGI", "setting": "OVCAR-5 ovarian", "value": "> 100", "unit": "µM"}, {"measurement": "TGI", "setting": "OVCAR-8 ovarian", "value": 80.1, "unit": "µM"}, {"measurement": "TGI", "setting": "PC-3 prostate", "value": "> 100", "unit": "µM"}, {"measurement": "TGI", "setting": "RPMI-8226 leukemia", "value": "> 100", "unit": "µM"}, {"measurement": "TGI", "setting": "RXF 393 renal", "value": 87, "unit": "µM"}, {"measurement": "TGI", "setting": "SF-268 CNS", "value": "> 100", "unit": "µM"}, {"measurement": "TGI", "setting": "SF-295 CNS", "value": "> 100", "unit": "µM"}, {"measurement": "TGI", "setting": "SF-539 CNS", "value": "> 100", "unit": "µM"}, {"measurement": "TGI", "setting": "SK-MEL-2 melanoma", "value": "> 100", "unit": "µM"}, {"measurement": "TGI", "setting": "SK-MEL-28 melanoma", "value": "> 100", "unit": "µM"}, {"measurement": "TGI", "setting": "SK-MEL-5 melanoma", "value": 39.4, "unit": "µM"}, {"measurement": "TGI", "setting": "SK-OV-3 ovarian", "value": "> 100", "unit": "µM"}, {"measurement": "TGI", "setting": "SN12C renal", "value": 80.6, "unit": "µM"}, {"measurement": "TGI", "setting": "SNB-19 CNS", "value": "> 100", "unit": "µM"}, {"measurement": "TGI", "setting": "SNB-75 CNS", "value": "> 100", "unit": "µM"}, {"measurement": "TGI", "setting": "SR leukemia", "value": 63.8, "unit": "µM"}, {"measurement": "TGI", "setting": "SW-620 colon", "value": "> 100", "unit": "µM"}, {"measurement": "TGI", "setting": "T-47D breast", "value": 94.2, "unit": "µM"}, {"measurement": "TGI", "setting": "TK-10 renal", "value": "> 100", "unit": "µM"}, {"measurement": "TGI", "setting": "U251 CNS", "value": "> 100", "unit": "µM"}, {"measurement": "TGI", "setting": "UACC-257 melanoma", "value": "> 100", "unit": "µM"}, {"measurement": "TGI", "setting": "UACC-62 melanoma", "value": "> 100", "unit": "µM"}, {"measurement": "TGI", "setting": "UO-31 renal", "value": "> 100", "unit": "µM"}]}
